Values of other authors, collected in patent US10603329B2 (INDENA S.P.A., priority 2006, dated 2020).

Test system: cancer cells
Details: in vitro; read-out: IC50, growth of cancer cells

- IC50: 20 to 75 µM
Structure (SMILES): COc1cc(C=CC(=O)CC(=O)C=Cc2ccc(O)c(OC)c2)ccc1O [curcumin, 1,7-bis(4-hydroxyl-3-methoxyphenyl)-1,6-heptadiene-3,5-dione]
